Results on 15 compounds are retold here after patent US9586963B2 (GENFIT, priority 2011, dated 2017).

One may read the EC50 as the midpoint of the concentration-response curve. The term melting point denotes the temperature, or range, at which the solid turns liquid.

For data set [1], the target named is T1, Rev-Erb alpha (Homo sapiens, UniProt P20393).
T1 sequence (P20393 284-614 limits assumed): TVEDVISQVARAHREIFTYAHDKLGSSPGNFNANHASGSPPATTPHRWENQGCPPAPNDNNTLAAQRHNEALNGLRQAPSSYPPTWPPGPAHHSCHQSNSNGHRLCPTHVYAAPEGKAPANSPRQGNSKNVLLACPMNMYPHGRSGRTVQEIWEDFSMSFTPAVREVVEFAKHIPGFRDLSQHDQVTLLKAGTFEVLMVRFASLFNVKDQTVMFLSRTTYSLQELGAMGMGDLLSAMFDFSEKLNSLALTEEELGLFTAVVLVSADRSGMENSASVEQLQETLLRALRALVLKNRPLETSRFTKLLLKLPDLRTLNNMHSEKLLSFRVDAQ
Description: TR-FRET (HTRF) assay of Rev-Erb alpha LBD with NCoR peptide ID1. It counts as biochemical. The note with it: cell-free, Rev-Erb alpha LBD His 20 nM, NCoR ID1 30 nM. As for the experimental part:
Recombinant histidine-tagged Rev-Erb alpha ligand binding domain (LBD; SEQ ID NO: 1) and NCoR peptide ID1 (SEQ ID NO: 2) were tagged with fluorophores. Histidine-tagged Rev-Erb alpha LBD protein was set up in a one to one ratio of 20 nM of His D2 (Cis Bio International 61HSDLB). The NCoR peptide (ID1) was prepared in-house. We used a concentration of 30 nM NCoR and 10 nM Terbium-labeled streptavidin (Cis Bio International 610SATLB).
The buffer for this assay comprised PBS pH 7.2, NaH2P04 at 4 g/L, Na2HP04 at 27 g/L and NaCl at 9 g/l in deionized water. Before using the buffer in the assay, a mixture comprising 1 mM of DTT, 2 mM of CHAPS, 1 mM of EDTA and 0.1% BSA fatty acid free was added to the appropriate amount of buffer. The protein mixture comprising recombinant Rev-Erb alpha LBD His (20 nM), the NCoR ID1 (30 nM) and their respective fluorophores were added to each well of a 384-well plate in a volume 18 μl. The compounds to analyze were diluted in PBS 10% DMSO and was added in a volume of 2 μL in a well. The final mixture volume was 20 μL and the mixture was allowed equilibrate for 2 hours at room temperature. Fluorescence intensity was then counted on the TECAN Genios Pro as a ratio of the fluorescence measured at 665 nm and that measured at 620 nm obtained in the absence of the compound (buffer only) or with the compound. Four experiments were carried out for each compound.
Each compound has been tested at 6 different concentrations to depict a dose-effect enabling the measure of biochemical parameters such as EC50 and TOP activation (%).
The Homogenous Time Resolved Fluorescence (HTRF) assay allows studying the ability of compounds according to the invention to activate Rev-Erb alpha and thus modulate the interaction with its corepressor. The molecular interactions between these bio-molecules are assessed in a cell-free assay by coupling each partner with a fluorescent label and detecting the level of energy transfer. This energy transfer occurs when the distance between the donor (SA Terbium complex) and the acceptor (D2) is small enough.
The ability of compounds according to the invention of activating Rev-Erb alpha was assessed in the described acellular assay. EC50 and TOP activation were measured.
In general terms: TR-FRET usually uses a lanthanide donor and a delayed reading to cut background.

The target of data set [2] is T1, Rev-Erb alpha. Description: M2H (mammalian two-hybrid) cellular activation assay of Rev-Erb alpha. The format is cell-based. The settings on record: M2H assay, HEK293 cells, Gal4-Rev-Erb alpha / VP16-NCoR, luciferase reporter. Summed up:
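Six-point dose-response, 18 h, 37 °C, serum-free, in HEK293 cells carrying a Gal4-RE luciferase reporter with Gal4-Rev-Erb alpha or beta plus VP16-NCoR (corepressor interaction readout). EC50 and TOP activation (%) derived from luminescence across four experiments.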
In general terms: Reporter assays use an easily measured gene product as a stand-in for the process of interest.

The next data set has as its target T2, Rev-Erb beta (Homo sapiens, UniProt Q14995).
T2 sequence (Q14995 369-579 limits assumed): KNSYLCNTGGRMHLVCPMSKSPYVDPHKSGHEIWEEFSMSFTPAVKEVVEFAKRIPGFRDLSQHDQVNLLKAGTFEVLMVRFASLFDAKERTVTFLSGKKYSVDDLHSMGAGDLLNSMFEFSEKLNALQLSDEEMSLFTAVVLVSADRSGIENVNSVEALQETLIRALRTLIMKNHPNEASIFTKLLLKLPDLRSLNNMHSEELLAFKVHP
The experiment in a line: M2H (mammalian two-hybrid) cellular activation assay of Rev-Erb beta. The format is cell-based. The note with it: HEK293 cells, Gal4-Rev-Erb beta / VP16-NCoR, luciferase reporter. As to the method:
In this system, Rev-Erb alpha or Rev-Erb beta is expressed as a fusion to the Gal4 DNA-binding domain and the cofactor NCoR is expressed as a fusion to the activation domain of the Herpes Simplex Virus tegument protein VP16. These fusion proteins were included in plasmids at a concentration of 1 μg/μL. The pBS-SK+ vector was added to the preparation to adjust the DNA quantity to a fixed value for each condition.
The transfection mix (Jet-PEI protocol, Polyplus transfection) comprised: • 3 mL of Jet PEI Mix (180 μL Jet-Pei and NaCl at 150 mM) and • 3 mL of the DNA Mix or of the DNA Mix control (wherein the Gal4-Rev-Erb alpha plasmid was replaced by a pGal4phi plasmid).
DNA Mix comprised 1.2 mL of DNA and 1.8 mL of NaCl at 150 mM with, in a T225 flask: • 90 ng of Gal4-Rev-Erb alpha, or 90 ng of Gal4-Rev-Erb beta, • 4500 ng of VP16-NCoR, • 27000 ng of Gal4-RE and • 13410 ng of pBS-SK+. Cells
HEK293 cells were cultured in DMEM (Invitrogen 41965) comprising 10% FBS, P/S, 1% glutamine, 1% pyruvate (Invitrogen 11360) and 1% amino acids (Invitrogen 11140). Cells were then batch co-transfected with plasmid vectors (described in the table above) using as Jet-PEI as reagent (Polyplus) following the protocol specified below.
The 6 mL-transfection mix was transferred in a T225 flask. HEK293 cells were then added at a concentration of 12 Millions of cells for 54 mL of medium (DMEM comprising 10% FBS and 1% P/S). Cells incubated over-night at 37° C. and under 5% CO2.
This cell-based assay is performed using 384-well Greiner white plates (Reference 781080). After the incubation, cells were rinsed with PBS, trypsinized, centrifuged and resuspended in free-serum DMEM without phenol red (Invitrogen 31053). Cells were counted and adjusted to 0.5 Million per mL and plated at a concentration of 10,000 cells in 20 μL per well. They were incubated a minimum of 4 hours at 37° C. under 5% CO2. Cells were treated with 20 μL of the compound to analyze (concentration of 2× diluted in DMEM without FBS containing a maximum of 1% DMSO) and incubated over-night (18 hours, 37° C. and 5% CO2). Each compound has been tested at 6 different concentrations to depict a dose-effect allowing the measure of biochemical parameters such as EC50 and TOP activation (%).
Cells were incubated 30 minutes with 40 μL/well of Steady Glow (Promega) and luminescence was read with TECAN Genios Pro (100 ms/w). Four experiments were carried out for each compound.
Each compound has been tested at 6 different concentrations to depict a dose-effect allowing the measure of biochemical parameters such as EC50 and TOP activation (%).
The mammalian two-hybrid system (M2H) assay consists herein in studying the ability of compounds according to the invention to activate Rev-Erbalpha in cells and thus modulate the interaction with its corepressor. The interaction of the two proteins is assessed with the help of the Luciferase reporter gene. HEK293 cells were transfected with two gene constructions: Gal4-RE VP16-NCoR and Gal4-Rev-Erbalpha or with Gal4-RE, sVP16-NCoR and Gal4-Rev-Erb beta.
The ability of compounds according to the invention of activating Rev-Erbalpha alpha or Rev-Erb beta was assessed in the described cell-based assay. EC50 and TOP activation (%) were measured.

For data set [3] the following is noted: high clearance and rapid metabolism; cited from earlier work.
Another data set deals with diet induced obese mice. The note with it: Solt et al; cited from earlier work.

The compound `COc1ccc(-c2ccccc2)c(Oc2ccc3nnc(Cl)n3n2)c1` [Cpd.4-6, 6-(4-methoxy-biphenyl-2-yloxy)-3-chloro-[1,2,4]triazolo[4,3-b]pyridazine] displayed a melting point of 128.1 °C. At Rev-Erb alpha [1], this compound came in with an EC50 of less than 0.1 µM. The compound further registered a 50% effective concentration (EC50) on Rev-Erb alpha [2] of 0.1 to 1 µM.

For `Fc1ccc(-c2ccccc2)c(Oc2ccc3nnc(Cl)n3n2)c1` [Cpd.4-7, 6-(4-fluoro-biphenyl-2-yloxy)-3-chloro-[1,2,4]triazolo[4,3-b]pyridazine], the melting point came to 180.7 °C. In addition, the EC50 on Rev-Erb alpha [1] is less than 0.1 µM. On Rev-Erb alpha [2], this compound yielded an EC50 of 0.1 to 1 µM.

`O=C(c1ccccc1)c1ccccc1Oc1ccc2nnc(C(F)(F)F)n2n1` [Cpd.4-8, (2-(3-(trifluoromethyl)-[1,2,4]triazolo[4,3-b]pyridazin-6-yloxy)phenyl)(phenyl)methanone] gave a melting point of 112.1 °C. For the same compound, the EC50 at Rev-Erb alpha [1] lay in the range of 0.1 to 1 µM. Moreover, on Rev-Erb alpha [2], the EC50 lay within 1 to 6 µM.

Turning to `Fc1ccc(-c2ccccc2Oc2ccc3nnc(Cl)n3n2)cc1` [Cpd.4-10, 6-(4′-fluoro-biphenyl-2-yloxy)-3-chloro-[1,2,4]triazolo[4,3-b]pyridazine], the melting point turned out to be 144.4 °C. This compound came in with an EC50 at Rev-Erb alpha [1] of less than 0.1 µM. At Rev-Erb alpha [2], the EC50 fell in the range of 0.1 to 1 µM.

For the compound `O=C(c1ccccc1)c1ccccc1Oc1ccc2nnc(Cl)n2n1` [Cpd.4-11, (2-(3-chloro-[1,2,4]triazolo[4,3-b]pyridazin-6-yloxy)phenyl)(phenyl)methanone], the melting point amounted to 137.9 °C. Also, on Rev-Erb alpha [1], the concentration giving a half-maximal response (EC50) fell in the range of 1.1 to 6 µM. The compound further yielded an EC50 on Rev-Erb alpha [2] of 1 to 6 µM.

In turn, `FC(F)(F)c1nnc2ccc(Cc3ccccc3-c3ccccc3)nn12` [Cpd.4-12, 6-(biphenyl-2-ylmethyl)-3-(trifluoromethyl)-[1,2,4]triazolo[4,3-b]pyridazine] showed a melting point of 117.4 °C. In addition, the 50% effective concentration (EC50) on Rev-Erb alpha [1] was in the range of 1.1 to 6 µM. On Rev-Erb alpha [2], this compound came in with an EC50 of 1 to 6 µM.

In turn, `Cc1cc(Oc2ccc3nnc(Cl)n3n2)c(-c2ccccc2)cc1C` [Cpd.4-18, 6-(4,5-dimethyl-biphenyl-2-yloxy)-3-chloro-[1,2,4]triazolo[4,3-b]pyridazine] showed a melting point of 147.5 °C. For the same compound, on Rev-Erb beta, the EC50 lay in the range of 0.1 to 1 µM. At Rev-Erb alpha [2], the EC50 is less than 0.1 µM.

The compound `CC(C)(C)c1ccc(Oc2ccc3nnc(Cl)n3n2)c(-c2ccccc2)c1` [Cpd.4-19, 6-(5-tert-butyl-biphenyl-2-yloxy)-3-chloro-[1,2,4]triazolo[4,3-b]pyridazine] showed a melting point of 199.1 °C. Further, the EC50 on Rev-Erb beta is 0.1 to 1 µM. Also, on Rev-Erb alpha [2], the EC50 was 0.1 to 1 µM.

For the compound `CN(C)c1ccc(-c2ccccc2)c(Oc2ccc3nnc(Cl)n3n2)c1` [Cpd.4-45, 3-chloro-6-(4-N,N-dimethylamino-biphenyl-2-yloxy)-[1,2,4]triazolo[4,3-b]pyridazine], the EC50 at Rev-Erb beta is 0.1 to 1 µM; on Rev-Erb alpha [2], less than 0.1 µM.

`CN(C)c1ccc(Oc2ccc3nnc(Cl)n3n2)c(-c2ccccc2)c1` [Cpd.4-46, 3-chloro-6-(5-dimethylamino-biphenyl-2-yloxy)-[1,2,4]triazolo[4,3-b]pyridazine]: the melting point was in the range of 148 to 149 °C. Further, the EC50 on Rev-Erb beta was 0.1 to 1 µM. In addition, the EC50 on Rev-Erb alpha [2] is less than 0.1 µM.

On to `CCNc1ccc(Oc2ccc3nnc(Cl)n3n2)c(-c2ccccc2)c1` [Cpd.4-54, 3-chloro-6-(5-ethylamino-biphenyl-2-yloxy)-[1,2,4]triazolo[4,3-b]pyridazine], for which the melting point lay within 72 to 77 °C. The EC50 at Rev-Erb beta lay in the range of 0.1 to 1 µM. Also, the EC50 on Rev-Erb alpha [2] is 0.1 to 1 µM.

`CCCCNc1ccc(Oc2ccc3nnc(Cl)n3n2)c(-c2ccccc2)c1` [Cpd.4-58, 3-chloro-6-(5-butylamino-biphenyl-2-yloxy)-[1,2,4]triazolo[4,3-b]pyridazine] displayed a melting point of 85 to 88 °C. Besides, the EC50 at Rev-Erb beta lay within 0.1 to 1 µM. The concentration giving a half-maximal response (EC50) on Rev-Erb alpha [2] was 0.1 to 1 µM.

Turning to `CCOC(=O)C1Cc2ccccc2CN1C(=O)c1ccc(SC)s1` (centres unmarked) [SR8278], the pharmacokinetic properties result in data set [3] was “poor pharmacokinetic properties”.

Consider `CCOC(=O)N1CCC(CN(Cc2ccc(Cl)cc2)Cc2ccc([N+](=O)[O-])s2)C1` (centres unmarked) [SR9009], for which the metabolic parameters result with diet induced obese mice is on record as “improve the metabolic parameters”.

Consider `CCCCCNC(=O)N1CCC(CN(Cc2ccc(Cl)cc2)Cc2ccc([N+](=O)[O-])s2)C1` (centres unmarked) [SR9011], for which, in the data set with diet induced obese mice, the metabolic parameters entry is “improve the metabolic parameters”.
